In patent publication US6361788B1, “Synergistic biocide composition” (Thor Chemie GmbH, priority 1997, dated 2002):
Entries after “also recorded” stand apart in the source; their conditions may differ.

Experiments:
Assay type in all cases: cell-based
Escherichia coli = assay: MIC and synergy of MIT and BIT in Müller-Hinton broth, 72 h; conditions: for growth of the microorganism: MIT ppm = row head c0; on growth of the microorganism: key: growth of the microorganism took place (symbol '+'); or not (symbol '−')
Procedure: For this purpose, aqueous mixtures were produced with various concentrations of 2-methylisothiazolin-3-one (MIT) and 1,2-benzisothiazolin-3-one (BIT) and the activity of these mixtures on Escherichia coli (International Mycological Institute, Strain No. IMI 362054) was tested.
In addition to the biocide component and water, the aqueous mixtures contained a nutrient medium, namely a Müller-Hinton broth (commercial product “Merck No. 10393”). The cell density of Escherichia coli was 10^6 cells/mL. The incubation time was 72 h at 25° C. Each sample was incubated on an incubation shaker at 120 rpm.
(§1) The synergy index is calculated according to the method of F. C. Kull et al., Applied Microbiology, Vol. 9 (1961), p. 538. Here the synergy index is calculated using the following formula:
(§2) Synergy index SI=Qa/QA+Qb/QB.
When the synergy index has the value 1, this means that there is an addition of the activity of the two biocides. When the synergy index has a value of less than 1, this means that a synergy of the two biocides exists.

Pseudomonas stutzeri = assay: as above; conditions: for growth of the microorganism: MIT ppm = row head c0
Procedure: as §1, §2
The synergy of MIT and BIT against the microorganism Pseudomonas stutzeri is shown as in Example 1.
The test batches again contained a Müller-Hinton broth as a nutrient medium. The cell density was 10^6 cells/mL. The incubation time was 72 h at 25° C. Each sample was incubated on an incubation shaker at 120 rpm.

[1] = test system: standard bacterial inoculum; assay: Preservation of coating composition A, repeated bacterial inoculation, streak evaluation
Description: Biocide compositions according to the invention were incorporated into a coating composition A that is used for coating building facades. This coating composition is a plaster based on an aqueous polymer dispersion commercially available under the designation “Granol KR 3.0” (company Steinwerke Kupferdreh GmbH). The addition of the biocide composition of the invention served to preserve the coating composition before its use, i.e., while it was stored in its packing drums.
The biocides shown in Table XI below were added respectively to 50 g of coating composition A. The stated amounts of biocide refer to the amount of coating composition A. In the MIT/BIT mixtures, the two biocides were present in a weight ratio of 1:1.
Apart from a blank test without addition of biocide, 1 mL of a standard bacterial inoculum that contained the following bacterial strains was added to each sample of coating composition A:
The cell density of the inoculum was 10^10 to 3·10^10 cells/mL, and the cell density of the samples was 2·10^8 to 6·10^8 cells/g. The samples were held at 30° C. for 7 days. Then a streak of each sample was produced on a nutrient agar plate, held at 30° C. for 48 h, and then evaluated for bacterial growth. The following evaluation scale was used:
When the bacterial growth was evaluated as below 6, a second bacterial inoculum of the above-mentioned type was added to the corresponding original 50 g sample and it was again held at 30° C. for 7 days. Then a streak was again produced on a nutrient agar plate, which was again evaluated for its bacterial growth after a holding time of 48 h at 30° C.
When the bacterial growth of the streak was evaluated as 6 for a sample, the testing of this sample was terminated. As long as a sample had not reached this number, a bacterial inoculum was again added in the above-mentioned manner and the sample was held and tested by means of a streak. This procedure was repeated as necessary, with a maximum of 4 bacterial inocula being added per sample.

[2] = BIT share of the BIT/MIT mixture at MIC, 72 h
Wherever growth of the microorganism is given: key: growth of the microorganism took place (symbol '+'); or not (symbol '−').

## O=c1[nH]sc2ccccc12 [BIT, 1,2-benzisothiazolin-3-one]
Escherichia coli; 72 h
  MIC at Total concentration BIT + MIT Qa + Qb: 25 ppm
  Qa/QA: 1.00
Escherichia coli; 72 h, method of Kull
  Synergy index Qa/QA + Qb/QB: 1.00
Escherichia coli; BIT 1 ppm, 72 h
  growth of the microorganism: +
Escherichia coli; BIT 2.5 ppm, 72 h
  growth of the microorganism: +
Escherichia coli; BIT 5 ppm, 72 h
  growth of the microorganism: +
Escherichia coli; BIT 7.5 ppm, 72 h
  growth of the microorganism: +
Escherichia coli; BIT 10 ppm, 72 h
  growth of the microorganism: +
Escherichia coli; BIT 12.5 ppm, 72 h
  growth of the microorganism: +
Escherichia coli; BIT 15 ppm, 72 h
  growth of the microorganism: +
Escherichia coli; BIT 17.5 ppm, 72 h
  growth of the microorganism: +
Escherichia coli; BIT 20 ppm, 72 h
  growth of the microorganism: +
Escherichia coli; BIT 25 ppm, 72 h
  growth of the microorganism: −
Escherichia coli; BIT 30 ppm, 72 h
  growth of the microorganism: −
Escherichia coli; BIT 35 ppm, 72 h
  growth of the microorganism: −
Escherichia coli; [2]
  MIC at BIT concentration Qa: 25 ppm
Escherichia coli; used alone, 72 h at 25° C.
  MIC value: 25 ppm
Pseudomonas stutzeri; 72 h
  MIC at Total concentration BIT + MIT Qa + Qb: 20 ppm
  Qa/QA: 1.00
  Synergy index Qa/QA + Qb/QB: 1.00
Pseudomonas stutzeri; BIT 0.5 ppm, 72 h
  growth of the microorganism: +
Pseudomonas stutzeri; BIT 1 ppm, 72 h
  growth of the microorganism: +
Pseudomonas stutzeri; BIT 2.5 ppm, 72 h
  growth of the microorganism: +
Pseudomonas stutzeri; BIT 5 ppm, 72 h
  growth of the microorganism: +
Pseudomonas stutzeri; BIT 7.5 ppm, 72 h
  growth of the microorganism: +
Pseudomonas stutzeri; BIT 10 ppm, 72 h
  growth of the microorganism: +
Pseudomonas stutzeri; BIT 15 ppm, 72 h
  growth of the microorganism: +
Pseudomonas stutzeri; BIT 20 ppm, 72 h
  growth of the microorganism: −
Pseudomonas stutzeri; BIT 25 ppm, 72 h
  growth of the microorganism: −
Pseudomonas stutzeri; BIT 30 ppm, 72 h
  growth of the microorganism: −
Pseudomonas stutzeri; [2]
  MIC at BIT concentration Qa: 20 ppm
Pseudomonas stutzeri; used alone, 72 h at 25° C.
  MIC value: 20 ppm
[1]; biocide 0.005% by wt
  Bacterial growth (7 days + 48 h after 4th inoculation): full bacterial growth was reached already after the first inoculation; also recorded: (Growth already after 1st inoculation)
[1]; biocide 0.01% by wt
  Bacterial growth (7 days + 48 h after 4th inoculation): (Growth already after 1st inoculation)
[1]; biocide 0.015% by wt
  Bacterial growth (7 days + 48 h after 4th inoculation): after the second inoculation; also recorded: (Growth already after 2nd inoculation)
[1]; biocide 0.02% by wt
  Bacterial growth (7 days + 48 h after 4th inoculation): (Growth already after 2nd inoculation)
[1]; biocide 0.03% by wt
  Bacterial growth (7 days + 48 h after 4th inoculation): after the third inoculation; also recorded: (Growth already after 3rd inoculation)
